Structures can show the parent of a compound that is named as a salt.
Columns and labels:
mouse (Harlan ND4) = test: mouse hot plate test (mouse jump); assay type: in vivo; conditions: subcutaneous injection, tested 15 minutes after administration, hot plate 55° C.
Description: In the mouse hot plate test, an upright acrylic cylinder comprising, as its base, a hot plate surface which is maintained at 55° C. is used. A mouse (Harlan ND4) is given, by subcutaneous injection, a predetermined amount of test compound dissolved or suspended in a suitable carrier, and, 15 minutes after administration of the test compound, the mouse is placed on the hot plate surface. The latency in seconds until the mouse jumps from the hot plate surface is measured. […] This must occur in a dose range which produces no motor incoordination or incapacitation. The following Table records ED50 results obtained from this test. By the term "ED50 " is meant that dose which produces analgesia in 50% of the mice tested. Analgesia is defined as a response latency in the presence of test compound that is equal to or greater than the control response latency plus two standard deviations. The percent analgesia data are converted to probits, and the ED50 is calculated by regression analysis of the dose-response data. Each dose response curve must have at least four points, and each point is determined using data from a minimum of ten treated mice and ten control mice.

Cox Standard albino mice = test: mouse writhing test (acetic acid induced); assay type: in vivo; conditions: 0.6% acetic acid i.p., dose reducing writhing frequency by 50%
Description: In the mouse writhing test, a writhing response is defined as a contraction of the abdominal musculature followed by extension of the hind limbs. Acetic acid administered intraperitoneally (10 ml./kg.) at a concentration of 0.6% was used to induce a writhing response. Five Cox Standard albino mice weighing 20-22 g. after being fasted overnight were observed simultaneously for the writhing response. Each mouse was used only once. The observation period was then […] and started five minutes following administration of the acetic acid. Inhibition of mouse writhing was calculated from the total number of writhes in the control and test compound-treated groups according to the following formula: [formula]
The dose required to reduce the frequency of writhing by 50% is defined as the ED50 and is calculated by "The use of Regression Line in Reverse", [Brownlee, K.A., Statistical Theory and Methodology in Science and Engineering, 2nd Ed., New York, John Wiley and Sons (1965)].

mice = conditions: cited from earlier work

Molecule	Mouse Jump ED50 (mouse (Harlan ND4))	Mouse Writhing, ED50, Oral (Cox Standard albino mice)	Mouse Writhing, ED50, Subcutaneous (Cox Standard albino mice)	analgesic activity upon intracerebroventricular administration (mice)
CCN(C(=O)CNC(=O)[C@@H](C)NC(=O)[C@H](Cc1ccc(O)cc1)NC)[C@@H](Cc1ccc(F)cc1)CN(C)C [Ala Et p-F, L-(N-Methyl)tyrosyl-D-alanylglycine[N-ethyl-N-[1-(4'-fluorobenzyl)-2-dimethylamino]ethyl]amide, Diacetate Salt]	0.04 mg/kg	88.2 mg/kg	2.1 mg/kg	
H-Tyr-Gly-Gly-Phe-Met-OH [methionine enkephalin]				exhibit analgesic activity
CN[C@@H](Cc1ccc(O)cc1)C(=O)N[C@H](C)C(=O)NCC(=O)N(C)[C@@H](Cc1ccccc1)CN(C)C [Ala Me H, L-(N-Methyl)tyrosyl-D-alanylglycine, [N-methyl-N-(1-benzyl-2-dimethylamino)ethyl]amide, Diacetate Salt]	0.05 mg/kg	~ 160 mg./kg.	1.81 mg/kg	
CCN(C(=O)CNC(=O)[C@@H](C)NC(=O)[C@H](Cc1ccc(O)cc1)NC)[C@@H](Cc1ccccc1)CN(C)C [Ala Et H, L-(N-Methyl)tyrosyl-D-alanylglycine, [N-ethyl-N-(1-benzyl-2-dimethylamino)ethyl]amide, Diacetate Salt]	0.04 mg/kg	50.4 mg/kg	1.14 mg/kg	
CCN(C(=O)CNC(=O)[C@@H](COC)NC(=O)[C@H](Cc1ccc(O)cc1)NC)[C@@H](Cc1ccccc1)CN(C)C [Ser(Me) Et H, L-(N-Methyl)tyrosyl-D-(O-methyl)serylglycine, [N-ethyl-N-(1-benzyl-2-dimethylamino)ethyl]amide, Diacetate Salt]	0.09 mg/kg	53.5 mg/kg	3.6 mg/kg	
H-Tyr-Gly-Gly-Phe-Leu-OH [leucine enkephalin]				exhibit analgesic activity
